Here are results for one compound from US6965113B2, “Fluorescence intensity multiple distributions analysis: concurrent determination of diffusion times and molecular brightness” (Evotec AG, priority 2000, dated 2005).

One experiment addresses T1, SH2 domain of Grb2 (Homo sapiens, UniProt P62993).
T1 construct: as a model system, the bare SH2 domain (14.3 kDa) has been chosen; made in house
Briefly: Experiment 1: titration of SH2 against constant 0.4 nM pTyr-Val-Asn-Val-Lys(Cy5), confocal fluorescence fluctuation measurement (FIMDA, FCS, FIDA), hyperbolic fit of fraction bound. The note with it: 0.4 nM conjugate, same buffer, T=20° C., read-out: binding constant KD for the SH2-phosphopeptide interaction. The source says:
The central optical part of the present FIMDA experiment is a confocal microscope as it is used in fluorescence correlation spectroscopy (Koppel et al., Biophys. J. 16: 1315-1329, 1976: Rigler et al., Eur. Biophys. J. 22: 169-175, 1993). For the excitation of fluorescence, a beam from a continuous wave laser is attenuated to ˜800 μW by neutral density filters, passes a beam expander, and is directed to the microscope objective (UApo/340, 40x, N.A. 1.15, Olympus Optical Co. Ltd., Tokyo, Japan) by a dichroic mirror. Fluorescence is collected by the said objective through the dichroic mirror, a spectral band-pass filter, and is focused to a confocal pinhole, which serves to reject the out-of-focus light. The light, which passes the pinhole, is detected by a silicon photon counting module (SPCM-AQ-131, EG&G Optoelectronics, Vaudreuil, Canada). […]
A series of simultaneously measured or simulated distributions is globally fitted using a Marquardt algorithm. […] Theoretical distributions are calculated using exactly the same algorithm as in FIDA, except that each species has an individual apparent concentration and an apparent brightness at each time window, calculated according to Eqs. […]

In experiment [1] the target is T2, SH2-domain of the adapter protein Grb2 (Homo sapiens, UniProt P62993).
T2 construct: as a model system, the bare SH2 domain (14.3 kDa) has been chosen; made in house
Briefly: Experiment 2: titration of SH2 against constant 0.8 nM pTyr-Val-Asn-Val-Lys(Cy5), FCS, FIDA and FIMDA data collected simultaneously. The class given is binding. The settings on record: 0.8 nM conjugate, T=20° C. As for the experimental part:
Since the diffusion time of the dye is […] (compared to 40 μs) it spends only a short time in the confocal volume and its apparent brightness decreases. From this information the diffusion time can be calculated from a global fit.
The viability of the present invention was tested by measurements characterizing a ligand-protein interaction. The minimal peptide sequence pTyr-Val-Asn (originating from tyrosine kinase growth factor receptors) binds to the SH2-domain of the adapter protein Grb2. The conjugate pTyr-Val-Asn-Val-Lys(Cy5) was synthesized as binding partner for SH2. All measurements were performed under identical conditions (e.g. same buffer: sterile filter water, 50 mM Na-phosphate buffer pH 7.8, 50 mM NaCl and 0.05% Pluronic; T=20° C.). To obtain the KD value for the ligand protein interaction a titration experiment was carried out. The pTyr-Val-Asn-Val-Lys(Cy5) concentration was kept constant at 0.8 nM, while SH2 was subject to titration (0.01, 0.03, 0.1, 0.3, 1, 3, 10, 30, 100, and 130 μM). Each sample was measured 30 times keeping the acquisition time at 30 seconds per measurement. FCS (prior art), FIDA (prior art) and FIMDA (present invention) data were collected simultaneously in order to compare all three methods. It becomes clear that FIMDA is able to resolve both, the specific brightness and the diffusion time of both species (ligand and complex). Therefore, FIMDA is a more versatile tool than FCS or FIDA and will save assay development time. Comparing the standard deviations of all methods in determining brightness and diffusion time FIMDA is better or at least as good as FCS or FIDA.

The structures appear in SMILES notation. Read-outs that look alike come from different tables or passages of the source. Square brackets hold non-standard residues; d marks the D form. Peptide text beside a SMILES is read from it. * marks the point of attachment. X1 = CC[N+]1=C(C=CC=CC=C2N(CCCCCC(=O)*)c3ccc(S(=O)(=O)O)cc3C2(C)C)C(C)(C)c2cc(S(=O)(=O)[O-])ccc21; pY = N[C@@H](Cc1ccc(OP(=O)(O)O)cc1)C(=O)O

T2 sequence (P62993 60-152 limits assumed): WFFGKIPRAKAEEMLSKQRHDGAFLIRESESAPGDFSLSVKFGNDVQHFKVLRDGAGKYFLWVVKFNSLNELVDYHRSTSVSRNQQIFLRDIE
T1 sequence (P62993 60-152 limits assumed): as above

Turning to `CC[N+]1=C(C=CC=CC=C2N(CCCCCC(=O)NCCCC[C@H](NC(=O)[C@@H](NC(=O)[C@H](CC(N)=O)NC(=O)[C@@H](NC(=O)[C@@H](N)Cc3ccc(OP(=O)(O)O)cc3)C(C)C)C(C)C)C(=O)O)c3ccc(S(=O)(=O)O)cc3C2(C)C)C(C)(C)c2cc(S(=O)(=O)[O-])ccc21` [pTyr-Val-Asn-Val-Lys(Cy5)] (H-[pY]VNVK(X1)-OH; N-terminus and C-terminus assumed), the Kd on SH2 domain of Grb2 (FCS) came out at 2160 ± 190 nM; at SH2 domain of Grb2 (FIDA), 1600 ± 190 nM; in experiment [1] (FCS, same buffer), 2260 ± 280 nM; in experiment [1] (FIDA, same buffer), 1700 ± 290 nM; in experiment [1] (FIMDA, 50 mM Na-phosphate buffer pH 7.8, 50 mM NaCl, 0.05% Pluronic), 1680 ± 270 nM.
